Source: patent US20240325533A1, “MODIFIED IMMUNE CELLS AND METHODS OF USING THE SAME” (Beam Therapeutics Inc., priority 2021, published 2024)

How the values were obtained:
EGFR-specific CAR = assay: CAR expression by flow cytometry after editing (anti-idiotype antibody staining); type: cell-based, human
Excerpt: FIGS. 4A-4C provide flow cytometry graphs and bar graphs. FIGS. 4A and 4B depict CAR expression after editing A2A, HIF1α, and A2B target sites in CAR-T cells using guides. FIG. 4A provides flow cytometry graphs depicting CAR expression controls for electroporation (EP) only and untransduced (UTD) CAR-T cells. FIG. 4B are flow cytometry graphs depicting CAR expression of edited A2AR target sites using guides g145, g155, and Cas9 (top), edited HIF1α target sites using guides g168, g170, and g173 (middle), and edited A2B target sites using guides g221, g222, and Cas9 (bottom). FIG. 4C is a bar graph quantifying the CAR expression observed in the flow cytometry graphs of FIG. 4B. Consistent 60% CAR expression was seen across all guides and editing targets. There was no observed impact of editing on CAR expression.
FIG. 19A provides a bar graph showing base editing of the ADORA2A gene quantified via next generation sequencing (NGS). […] FIG. 19D provides a schematic providing an overview of a process for generating multiplex base edited EGFR-targeting ARC T cells. In FIG. 19B, each set of three bars correspond to, from left-to-right, TCR, HLA Class I, and HLA Class II. In FIGS. 19A-19D, “Base Editing Guide 1” […] indicates cells edited using the base editor ABE8.20 in combination with the guide sgRNA145 (see Table 1A), “Base Editing Guide 2” (BE2) indicates cells edited using the base editor ABE8.20 in combination with the guide sgRNA155, and “CRISPR Guide” indicates cells edited using a CRISPR guide and editor known to be effective in knocking out expression of A2AR.
FIG. 25 provides a set of flow cytometry scatter plots showing chimeric antigen receptor expression in EGFR-targeting CAR-T cells edited to knock out expression of the indicated polypeptides (i.e., A2AR, PD1, TGFbRII, or combinations thereof). At the end of culturing, T cells were stained with an anti-idiotype antibody. […] was knocked out using the guide TSBTx2043, PD1 expression was knocked out using the guide TSBTx025, TGFbR expression was knocked out using the guide TSBTx5277, and “Triple KO” cells were editing using all three guides (see Table 1B).

SKOV3 or H226 cells = assay: IFNγ production of EGFR CAR-Ts with HIF1α edits co-cultured with tumor cells in 1% O2; type: cell-based; conditions: 1 to 1 E:T ratio, 1% O2, 48 hours, vs unedited EGFR CAR-T cells, FIG. 10
Description: FIG. 10 provides bar graphs depicting IFNγ production (pg/mL) after EGFR CAR-Ts with HIF1α edits were co-cultured at 1 to 1 E:T ratio with either SKOV3 or H226 cells in 1% O2 for 48 hours. HIF1α was edited using guides g170 and g173. Electroporation (EP) only was used as a control. EGFR CAR-T cells with HIF1α knockout edits produced more cytokine under hypoxic stress than unedited EGFR CAR-T cells.

IFNγ production = IFNγ production of A2AR knockout T cells in the presence of CADO / extracellular adenosine; type: cell-based; conditions: normalized to 0 μM CADO (DMSO only), FIG. 15
Description: FIG. 15 presents bar graphs depicting IFNγ production after 48 hours in A2AR knockout T cells using guides g145 and g155. The data shown in FIG. 15 is normalized to IFNγ production in 0 μM CADO (DMSO only treatment). A2A knockout protected CAR-T cells from adenosine-mediated cytokine suppression.
FIGS. 20A-20E provide flow cytometry histograms, bar graphs, a plot, and images showing adenosine-resistant CAR-T cells (CAR-T cells) were protected from adenosine-mediated suppression in vitro. […] H266 cells expressing GFP were plated in ultra-low adherent 96-well plates and incubated at 36° C. for 3 days to allow for spheroid formation. Then, untransduced cells (UTD), ARC T cells, or CAR T cells expressing TCR, HLA Class I, HLA Class II, and ADAR were added to the wells at a 1:2 effector to target ratio (E:T) with 0 μM adenosine. Plates were then placed in an Incucyte live imaging analysis instrument and cytotoxicity was measured via reduction in GFP+ spheroid volume over time. In FIGS. 19A-19D, “BE KO1” indicates cells edited using the base editor ABE8.20 in combination with the guide sgRNA145 (see Table 1A), “BE KO2” indicates cells edited using the base editor ABE8.20 in combination with the guide sgRNA155, and “CRISPR KO” indicates cells edited using a CRISPR guide and editor known to be effective in knocking out expression of A2AR.

pCREB = pCREB expression (flow cytometry) in A2AR knockout T cells treated with CADO; type: cell-based; conditions: 30 μM CADO vs DMSO, FIG. 14
Description: FIG. 14 provides histograms depicting expression of pCREB in A2AR knockout T cells using guides g145 and g155. Cas9 and Electroporation (EP) only were used as controls. In the plots, the darker-grey histogram corresponds to DMSO and the lighter-grey histogram corresponds to 30 μM CADO. […] Throughout the figures, the term “CADO” represents 2-chloroadenosine.
FIGS. 20A-20E provide flow cytometry histograms, bar graphs, a plot, and images showing adenosine-resistant CAR-T cells (CAR-T cells) were protected from adenosine-mediated suppression in vitro. […] H266 cells expressing GFP were plated in ultra-low adherent 96-well plates and incubated at 36° C. for 3 days to allow for spheroid formation. Then, untransduced cells (UTD), ARC T cells, or CAR T cells expressing TCR, HLA Class I, HLA Class II, and ADAR were added to the wells at a 1:2 effector to target ratio (E:T) with 0 μM adenosine. Plates were then placed in an Incucyte live imaging analysis instrument and cytotoxicity was measured via reduction in GFP+ spheroid volume over time. […]

[1] = after editing A2A, HIF1α, and A2B target sites in CAR-T cells, FIG. 4C

UCACCUGAGCGGGACACAGA (chemistry not given here) [sgRNA222, guide RNA spacer; A2BR; Ex1 SD (Pos 4); used with CBE]
CAR expression (EGFR-specific CAR; [1]): 60%

UUUCAGAACUACAGUUCCUG (chemistry not given here) [sgRNA173, guide RNA spacer; HIF1α; ABE (ABE8.20); Ex13 SA (Pos 5)]
IFNγ production (SKOV3 or H226 cells): more cytokine
CAR expression (EGFR-specific CAR; [1]): 60%

CUGCUCACCGGAGCGGGAUG (chemistry not given here) [sgRNA145, guide RNA spacer; A2AR; CBE; Ex1 SD (Pos 8)]
IFNγ production after 48 hours (adenosine-mediated cytokine suppression) (IFNγ production): protected
CAR expression (EGFR-specific CAR; [1]): 60%
upregulation of downstream pCREB (pCREB): no upregulation

UCUCCCCAGGUACAAUGGCU (chemistry not given here) [sgRNA155, guide RNA spacer; A2AR; ABE (ABE8.20); Ex2 SA (Pos 8)]
IFNγ production after 48 hours (adenosine-mediated cytokine suppression) (IFNγ production): protected
CAR expression (EGFR-specific CAR; [1]): 60%
upregulation of downstream pCREB (pCREB): no upregulation

GGCCAUGCUGCUGGAGACAC (chemistry not given here) [sgRNA221, guide RNA spacer; A2BR; ABE; Ex1 START (Pos 5)]
CAR expression (EGFR-specific CAR; [1]): 60%

UGUUUACAGUUUGAACUAAC (chemistry not given here) [sgRNA168, guide RNA spacer; HIF1α; ABE; Ex4 SA (Pos 8)]
CAR expression (EGFR-specific CAR; [1]): 60%

ACACAGGUAUUGCACUGCAC (chemistry not given here) [sgRNA170, guide RNA spacer; HIF1α; ABE; Ex6 SA (Pos 5)]
IFNγ production (SKOV3 or H226 cells): more cytokine
CAR expression (EGFR-specific CAR; [1]): 60%

TSBTx5277: guide used with Cas12b to knock out TGFbR2 (guide CCCAGAGCACCAGAGCCAUGGA; listed as RNA, chemistry not given here)
CAR expression (EGFR-specific CAR; EGFR-targeting CAR-T cells with A2AR, PD1, TGFbRII knock-out or combinations, anti-idiotype antibody, FIG. 25): No differences
